From patent EP4703354A1, “COMPOUND AS CCR6 ANTAGONIST, AND PHARMACEUTICAL COMPOSITION AND USE THEREOF” (Wuhan Createrna Science and Technology Co.,Ltd., priority 2023, dated 2024)
Like-named read-outs stand apart in the source and are kept apart here.

What was measured:
human CCR6 = molecular target: T1, human CCR6 (Homo sapiens, UniProt P51684); test: human CCR6 calcium flux activity (FLIPR, HEK293 cells stably expressing human CCR6, CCL20 stimulation); type: cell-based; settings: HEK293 cells stably expressing human CCR6, EC80 human MIP-3 alpha/CCL20; read-out: CCR6 inhibitory activity, IC50
T1 construct: expressed in transfected cells; host or cells: HEK293
T1 sequence (P51684 1-374): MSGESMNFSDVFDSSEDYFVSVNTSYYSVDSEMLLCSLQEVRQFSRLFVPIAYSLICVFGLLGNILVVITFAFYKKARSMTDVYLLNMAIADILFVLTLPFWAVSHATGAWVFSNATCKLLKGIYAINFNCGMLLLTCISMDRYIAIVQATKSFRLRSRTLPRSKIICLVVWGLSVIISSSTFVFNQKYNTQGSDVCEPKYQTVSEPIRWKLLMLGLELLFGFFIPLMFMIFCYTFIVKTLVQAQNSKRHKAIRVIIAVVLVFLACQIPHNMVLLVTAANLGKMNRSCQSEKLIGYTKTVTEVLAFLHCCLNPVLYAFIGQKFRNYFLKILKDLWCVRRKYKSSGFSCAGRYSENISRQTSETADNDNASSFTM
Procedure: The activity of the compounds was evaluated using HEK293 cells stably expressing human CCR6 via the FLIPR platform. A 384-well black cell culture plate (Greiner, 781946) was used, with a seeding density of 20,000 cells/well, and incubated overnight at 37°C in a 5% CO2 incubator. The culture medium in the cell plate wells was removed, and 20 µL of Fluo-4 Direct™ Calcium Assay Buffer (Invitrogen, F10471, Component C), 20 µL of 2× Fluo-4 Direct™ Calcium Assay Reagent (Invitrogen, F10471, Component A) working solution, and 10 µL of 6× test compound working solution were sequentially added to each well. The cell plate was incubated in a 37 °C, 5% CO2 incubator for 50 min, followed by a 10 min incubation at room temperature. Additionally, a 6×EC80 human MIP-3 alpha/CCL20 (MCE, HY-P7262) working solution was prepared. After the incubation was completed, 10 µL/well of the 6×EC80 human MIP-3 alpha/CCL20 working solution was transferred to the cell plate using a FLIPR instrument, and the fluorescence signal changes at an excitation wavelength of 494 nm and an emission wavelength of 516 nm were recorded over 90 seconds. The difference between the maximum fluorescence signal (RFUMax) and the minimum fluorescence signal (RFUMin) was used as the output signal. The compound inhibition rate and the log value of the compound concentration were calculated, and a four-parameter fitting analysis was performed using GraphPad Prism 8 software to obtain the IC50 value of the test compound.

[1] = in vivo pharmacokinetic study in SD rats; settings: rat; for bioavailability: 1 mg/kg PO vs 1 mg/kg IV, read-out: Oral bioavailability F (%); for AUC(0-t) / Cmax / half-life: 1 mg/kg
Procedure: 2.2.1 Rats: SD rats, SPF grade, 6 rats per compound, male, body weight range 180-200 g.
2.2.2 Housing conditions: The animals were housed in an SPF-grade animal facility with free access to food and water, three per cage, under a 12/12-hour light/dark cycle (7:00 am/7:00 pm), at a temperature of 23 ± 3°C.
2.2.3 Drug preparation: The compound was precisely weighed, mixed with the required volume of 1% Tween 80, vortexed for 2 min, and then sonicated for 5 min until no visible particles remained. The mixture was subsequently stirred on a magnetic stirrer for 20 min, and the middle layer of the drug solution was collected for administration. For the IV group, the compound was accurately weighed, dissolved in the required volume of 50% PEG400, sonicated for 10 min, and vortexed until clear before administration.
The rats were randomly divided into 2 groups based on body weight, with 3 rats per compound per group. Group 1 was administered a single oral gavage dose (fasted), and Group 2 was administered a single tail vein bolus injection. Blood collection time points: for the po group, blood was collected at 0.167 h, 0.5 h, 1 h, 2 h, 3 h, 4 h, 6 h, and 8 h; for the iv group, blood was collected at 0.033 h, 0.167 h, 0.5 h, 1 h, 2 h, 4 h, 6 h, and 8 h.
After administration to the rats, blood was collected from the orbital venous plexus according to the sampling time points. Approximately 0.2-0.3 mL of blood was collected at each time point into anticoagulant EP tubes (containing 4 µL of EDTA-K2, 375 mg/mL, dried at 50°C). The tubes were slowly inverted up and down three times and stored in an ice box (for no more than 30 minutes). Centrifugation was performed at 4°C at 3000 × g for 10 minutes, and the supernatant was transferred to labeled EP tubes for bioanalytical testing. If testing could not be performed on the same day, the samples were stored at -80°C until analysis (care was taken to avoid multiple freeze/thaw cycles).
The data were analyzed using WinNonlin via a non-compartmental model to obtain PK parameters (Cmax, AUC0-last, AUCinf, T1/2, etc., selected based on different routes of administration). For specific data, please refer to Table 2. Table 2. PK experimental results of compounds in SD rats

SMILES	IC50 (human CCR6)	further results
Cc1cccnc1[C@H](Nc1c(Nc2ccnc(C(=O)N3CCOCC3)c2O)c(=O)c1=O)C1(C)CCCC1 [compound 059, (R)-3-((3-hydroxy-2-(morpholine-4-carbonyl)pyridin-4-yl)amino)-4-(((1-methylcyclopentyl)(3-methylpyridin-2-yl)methyl)amino)cyclobut-3-ene-1,2-dione]	13.6 nM	–
Cc1cncnc1C(Nc1c(Nc2ccnc(C(=O)N(C)C)c2O)c(=O)c1=O)C1(C)CCCC1 (stereo not shown) [compound 052, 3-hydroxy-N,N-dimethyl-4-((2-(((1-methylcyclopentyl)(5-methylpyrimidin-4-yl)methyl)amino)-3,4-dioxocyclobut-1-en-1-yl)amino)picolinamide]	196 nM	–
CN(C)C(=O)c1nccc(Nc2c(N[C@@H](C#Cc3ccccn3)C3(C)CCCC3)c(=O)c2=O)c1O [compound 118, (R)-3-hydroxy-N,N-dimethyl-4-((2-((1-(1-methylcyclopentyl)-3-(pyridin-2-yl)prop-2-yn-1-yl)amino)-3,4-dioxocyclobut-1-en-1-yl)amino)picolinamide]	183 nM	–
Cc1c(Cl)ccnc1[C@H](Nc1c(Nc2ccnc(C(=O)N(C)C)c2O)c(=O)c1=O)C1(C)CCCC1 [compound 048, (R)-4-((2-(((4-chloro-3-methylpyridin-2-yl)(1-methylcyclopentyl)methyl)amino)-3,4-dioxocyclobut-1-en-1-yl)amino)-3-hydroxy-N,N-dimethylpicolinamide]	60.8 nM	–
Cc1cc(F)cnc1[C@H](Nc1c(Nc2ccnc(C(=O)N(C)C)c2O)c(=O)c1=O)[C@@]1(C)CC(F)(F)CO1 [093B, 4-((2-(((S)-((R)-4,4-difluoro-2-methyltetrahydrofuran-2-yl)(5-fluoro-3-methylpyridin-2-yl)methyl)amino)-3,4-dioxocyclobut-1-en-1-yl)amino)-3-hydroxy-N,N-dimethylpicolinamide]	–	bioavailability ([1]; male, plasma): 51.6%; AUC(0-t) ([1]; male, plasma, IV): 716 ng·h/mL; Cmax ([1]; male, plasma, IV): 1890 ng/mL; AUC(0-t) ([1]; male, plasma, PO): 370 ng·h/mL; Cmax ([1]; male, plasma, PO): 285 ng/mL; half-life ([1]; male, plasma, PO): 3.83 h
CN(C)C(=O)c1nccc(Nc2c(N[C@@H](c3cnccn3)C3(C)CCCC3)c(=O)c2=O)c1O [compound 006, (R)-3-hydroxy-N,N-dimethyl-4-((2-(((1-methylcyclopentyl)(pyrazin-2-yl)methyl)amino)-3,4-dioxocyclobut-1-en-1-yl)amino)picolinamide]	74 nM	–
Cc1cccnc1[C@H](Nc1c(Nc2ccc(C)c(C(=O)N(C)C)c2O)c(=O)c1=O)C1(C)CCCC1 [compound 103, (R)-2-hydroxy-N,N,6-trimethyl-3-((2-(((1-methylcyclopentyl)(3-methylpyridin-2-yl)methyl)amino)-3,4-dioxocyclobut-1-en-1-yl)amino)benzamide]	73.6 nM	–
Cc1cccnc1C(Nc1c(Nc2ccnc(C(=O)N(C)C)c2O)c(=O)c1=O)C1(C)CC2CC2C1 (stereo not shown) [compound 122, 3-hydroxy-N,N-dimethyl-4-((2-(((3-methylbicyclo[3.1.0]hexan-3-yl)(3-methylpyridin-2-yl)methyl)amino)-3,4-dioxocyclobut-1-en-1-yl)amino)picolinamide]	181 nM	–
CN(C)C(=O)c1nccc(Nc2c(NC(C(=O)C3CCC3)C3(C)CCCC3)c(=O)c2=O)c1O (stereo not shown) [compound 035, 4-((2-((2-cyclobutyl-1-(1-methylcyclopentyl)-2-oxoethyl)amino)-3,4-dioxocyclobut-1-en-1-yl)amino)-3-hydroxy-N,N-dimethylpicolinamide]	820 nM	–
CN(C)C(=O)c1nccc(Nc2c(N[C@@H](c3ccccc3)C3(C)CCCC3)c(=O)c2=O)c1O [compound 037, (R)-3-hydroxy-N,N-dimethyl-4-((2-(((1-methylcyclopentyl)(phenyl)methyl)amino)-3,4-dioxocyclobut-1-en-1-yl)amino)picolinamide]	95.8 nM	–
CN(C)C(=O)c1nccc(Nc2c(N[C@@H](c3ncccc3F)C3(C)CCCC3)c(=O)c2=O)c1O [compound 001, (R)-4-((2-(((3-fluoropyridin-2-yl)(1-methylcyclopentyl)methyl)amino)-3,4-dioxocyclobut-1-en-1-yl)amino)-3-hydroxy-N,N-dimethylpicolinamide]	2.4 nM	–
CN(C)C(=O)c1nccc(Nc2c(NC(c3nn(C)c4c3COC4)C3(C)CCCC3)c(=O)c2=O)c1O (stereo not shown) [compound 027, 3-hydroxy-N,N-dimethyl-4-((2-(((1-methyl-4,6-dihydro-1H-furo[3,4-c]pyrazol-3-yl)(1-methylcyclopentyl)methyl)amino)-3,4-dioxocyclobut-1-en-1-yl)amino)picolinamide]	1370 nM	–
Cc1cccnc1[C@H](Nc1c(Nc2ccc(F)c(C(=O)N(C)C)c2O)c(=O)c1=O)C1(C)CCCC1 [compound 104, (R)-6-fluoro-2-hydroxy-N,N-dimethyl-3-((2-(((1-methylcyclopentyl)(3-methylpyridin-2-yl)methyl)amino)-3,4-dioxocyclobut-1-en-1-yl)amino)benzamide]	4 nM	–
Cc1cccnc1C(Nc1c(Nc2ccnc(C(=O)N(C)C)c2O)c(=O)c1=O)C1(C)CCC(F)(F)C1 (single isomer, unassigned) [125B]	–	bioavailability ([1]; in vivo): 136%; AUC(0-t) ([1]; in vivo, IV): 1500 ng·h/mL; Cmax ([1]; in vivo, IV): 3050 ng/mL; AUC(0-t) ([1]; in vivo, PO): 2040 ng·h/mL; Cmax ([1]; in vivo, PO): 822 ng/mL; half-life ([1]; in vivo, PO): 1.37 h
CN(C)C(=O)c1nccc(Nc2c(N[C@@H](c3ncc(F)cc3Cl)C3(C)CCCC3)c(=O)c2=O)c1O [compound 011, (R)-4-((2-(((3-chloro-5-fluoropyridin-2-yl)(1-methylcyclopentyl)methyl)amino)-3,4-dioxocyclobut-1-en-1-yl)amino)-3-hydroxy-N,N-dimethylpicolinamide]	22.5 nM	–
Cc1cnc([C@H](Nc2c(Nc3ccnc(C(=O)N(C)C)c3O)c(=O)c2=O)C2(C)CCCC2)c(C)c1 [compound 061, (R)-4-((2-(((3,5-dimethylpyridin-2-yl)(1-methylcyclopentyl)methyl)amino)-3,4-dioxocyclobut-1-en-1-yl)amino)-3-hydroxy-N,N-dimethylpicolinamide]	152 nM	–
CN(C)C(=O)c1nccc(Nc2c(NC(C(=O)C3CC3)C3(C)CCCC3)c(=O)c2=O)c1O (stereo not shown) [compound 034, 4-((2-((2-cyclopropyl-1-(1-methylcyclopentyl)-2-oxoethyl)amino)-3,4-dioxocyclobut-1-en-1-yl)amino)-3-hydroxy-N,N-dimethylpicolinamide]	887 nM	–
Cc1c(C(Nc2c(Nc3ccnc(C(=O)N(C)C)c3O)c(=O)c2=O)C2(C)CCCC2)nn2c1CCC2 (stereo not shown) [compound 029, 3-hydroxy-N,N-dimethyl-4-((2-(((3-methyl-5,6-dihydro-4H-pyrrolo[1,2-b]pyrazol-2-yl)(1-methylcyclopentyl)methyl)amino)-3,4-dioxocyclobut-1-en-1-yl)amino)picolinamide]	161 nM	–
